# Values of other authors in patent publication US20250169750A1 (HEMOLENS DIAGNOSTICS SP. Z O.O., priority 2022, published 2025).
# Tests used:
# A2A adenosine receptors = A2A adenosine receptors (Homo sapiens, UniProt P29274)
# [1] = test system: coronary vascular responsiveness to adenosine; details: for coronary conductance change / systemic pressure change: dog, in vivo
# Chain of A2A adenosine receptors (P29274 whole entry): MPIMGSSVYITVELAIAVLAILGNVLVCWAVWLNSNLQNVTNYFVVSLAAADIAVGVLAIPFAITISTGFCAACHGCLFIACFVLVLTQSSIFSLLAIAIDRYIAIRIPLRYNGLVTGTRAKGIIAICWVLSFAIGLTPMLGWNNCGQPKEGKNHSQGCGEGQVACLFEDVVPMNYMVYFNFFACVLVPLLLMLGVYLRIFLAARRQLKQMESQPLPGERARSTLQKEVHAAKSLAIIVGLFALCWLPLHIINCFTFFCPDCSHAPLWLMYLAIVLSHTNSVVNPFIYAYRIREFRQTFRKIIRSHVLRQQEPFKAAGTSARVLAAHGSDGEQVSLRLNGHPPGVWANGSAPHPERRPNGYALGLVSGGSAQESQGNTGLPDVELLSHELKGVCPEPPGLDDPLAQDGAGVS
smiles,measurement,setting,value
Nc1nc(N/N=C/C2CCCCC2)nc2c1ncn2[C@@H]1O[C@H](CO)[C@@H](O)[C@H]1O [Binodenoson],affinity to an Adenosine receptor (comparison),A2A adenosine receptors; APA vs BND,equal
same,duration of the action,A2A adenosine receptors; intravenous bolus,less than 5 minutes
COc1ccc(Cl)cc1C(=O)NCCc1ccc(S(=O)(=O)NC(=O)NC2CCCCC2)cc1 [Glibenclamide],change of Adenosine ED50,[1]; after Glibenclamide administration,increased dose-dependently
same,coronary conductance change,[1],reduction in coronary conductance
same,systemic pressure change,[1],increase in systemic pressure
"COC(=O)[C@@H](N)CCCNC(=N)N[N+](=O)[O-] [L-NAME, N^ω-Nitro-L-arginine methyl ester]",change of Adenosine plasma concentration needed to reach 50% of maximal conductivity increase (ED50),"[1]; after 1 mg/kg or 10 mg/kg of L-NAME, vs basal condition",increased three times
same,coronary conductance change,[1],reduction in coronary conductance
same,systemic pressure change,[1],increase in systemic pressure
CNC(=O)c1cnn(-c2nc(N)c3ncn([C@@H]4O[C@H](CO)[C@@H](O)[C@H]4O)c3n2)c1 [Regadenoson],"stress myocardial blood flow (MBF), comparison","400 μg bolus vs Dipyridamole 0.56 mg/kg or Adenosine 140 μg/kg/min, 15 healthy volunteers",higher values
same,"heart rate (HR), comparison",400 μg bolus vs Dipyridamole or Adenosine,higher values
same,"stress MBF adjusted to HR, comparison",Regadenoson vs Adenosine,no differences between Adenosine and Regadenoson
same,"stress MPR adjusted to HR, comparison",Regadenoson vs Adenosine,no differences between Regadenoson and Adenosine
same,"unadjusted myocardial perfusion reserve (MPR), comparison",vs Adenosine and Dipyridamole,higher
